The subject of test [1] is Normal human fibroblast MRC-5. The test is described as follows: Cell based assay for accumulation of MDM2 and p53 (immunoblot). The note with it: MRC-5 cells, 50 μM, 8 hours. The method, then:
Methods: Normal human fibroblast MRC-5 were chosen to determine whether the compounds from the high throughput screening can inhibit the E3 activity of Mdm2, i.e. stabilizing MDM2 and p53 in vivo. After being seeded in 12-well tissue culture cluster overnight, the cells were treated with 50 μM of the compounds for 8 hours. They were harvested with trypsin-EDTA, washed with PBS, and lysed with RIPA buffer. Following removal of insoluble pellet by centrifugation for 20 minutes at 10000 rpm, the lysate was separated on 4-20% gradient SDS-polyacrylamide gel and transferred onto nitrocellulose membrane. The membrane was then blotted with anti-p53 antibody (DO-1), anti-MDM2 antibodies (Ab-1 and Ab-2), anti-p27 (Santa Cruz), anti-Nedd4, and anti-p21Waf1 antibody. After extensive washing with PBS containing 0.5% Triton X-100, it was incubated with HRP-labeled donkey anti-mouse antibody and visualized using enhanced chemiluminescence.

Test [2] deals with T1, p53 pre-bound to GST-MDM2 (Homo sapiens, UniProt Q00987).
T1 construct: made in house; host or cells: GST-MDM2: bacteria; p53: SaOS-p53 inducible cells
T1 sequence (Q00987 whole entry): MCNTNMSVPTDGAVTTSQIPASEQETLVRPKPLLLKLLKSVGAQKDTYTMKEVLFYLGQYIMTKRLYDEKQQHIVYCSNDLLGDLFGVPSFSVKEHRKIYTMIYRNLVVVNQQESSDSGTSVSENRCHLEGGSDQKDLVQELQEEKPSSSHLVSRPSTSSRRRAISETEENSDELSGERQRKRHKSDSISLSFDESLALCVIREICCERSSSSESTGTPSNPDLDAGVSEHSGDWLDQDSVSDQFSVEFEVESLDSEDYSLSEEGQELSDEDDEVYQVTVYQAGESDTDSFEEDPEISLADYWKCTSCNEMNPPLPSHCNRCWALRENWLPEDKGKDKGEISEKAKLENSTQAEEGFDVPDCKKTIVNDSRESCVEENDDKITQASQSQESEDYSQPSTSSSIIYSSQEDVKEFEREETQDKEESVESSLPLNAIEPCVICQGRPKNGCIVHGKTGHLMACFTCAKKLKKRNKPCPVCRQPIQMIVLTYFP
T1 sequence (P04637 whole entry partner): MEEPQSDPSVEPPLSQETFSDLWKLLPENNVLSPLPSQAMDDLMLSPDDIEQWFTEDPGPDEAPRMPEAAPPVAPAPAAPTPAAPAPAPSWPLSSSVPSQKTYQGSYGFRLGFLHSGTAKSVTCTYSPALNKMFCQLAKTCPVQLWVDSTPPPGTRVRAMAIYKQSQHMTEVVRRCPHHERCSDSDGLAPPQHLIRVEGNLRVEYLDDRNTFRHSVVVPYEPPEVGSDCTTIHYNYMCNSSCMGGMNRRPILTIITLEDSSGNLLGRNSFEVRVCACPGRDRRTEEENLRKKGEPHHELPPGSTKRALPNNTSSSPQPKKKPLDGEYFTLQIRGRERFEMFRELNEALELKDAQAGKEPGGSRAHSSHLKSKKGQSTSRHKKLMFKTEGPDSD
The test is described as follows: In vitro p53 ubiquitination assay. In kind it is biochemical. The conditions noted are these: cellular p53 pre-bound to GST-MDM2, FIG. 2G. Here is the method: d. In Vitro R53 Ubiguitination Assay
p53 protein from SaOS-p53 inducible cell lysate was purified from cells using GST-MDM2 (5 pmol) pre-bound to GS beads. Samples were then incubated with test compounds as above. Subsequently 2 μl rabbit E1, 1 μl UbcH5b, and 10 μg of ubiquitin were added. After reaction for 15 min at 23° C., samples were subject to SDS-PAGE under reducing conditions, transferred to nitrocellulose membranes and immunoblotted with anti-p53 (DO-1) followed by ECL using standard techniques.

The target of a further test is T2, GST-MDM2 (Homo sapiens, UniProt Q00987).
T2 construct: made in house
T2 sequence (Q00987 whole entry): as the sequence (Q00987 whole entry) above
The test is described as follows: Standard MDM2 in vitro ubiquitination assay (E1+E2+E3), SDS-PAGE gel. The test is classed as biochemical. The conditions noted are these: FIG. 2A, 2F. Here is the method:
a. “Standard MDM2 in vitro Ubiguitination Assay” (E1+E2+E3 Assay)
1 pmole per experimental point of bacterially expressed GST-MDM2 (or GST-Nedd) was coupled to glutathione Sepharose (GS) for 30 minutes at room temperature with tumbling, followed by 3× wash with 50 mM Tris pH 7.5. Following this, 20 μl of 1× buffer was added (40 μl 10× reaction buffer*, 40 μl 10× PCK**, 320 μl dH2O). The test compound in DMSO is then added to the desired concentration with an equal volume of DMSO used as a control. Samples are incubated with shaking for 1 hr at 23° C. […] The reaction is terminated by addition of 8 μl 4× reducing SDS-PAGE loading buffer. After dissociating proteins from the beads at 100° C. for 2 minutes, samples are resolved on 6% PAGE followed by exposure of the dried gel to phosphor screen. Note: ^32P Ub is derived from GST-Ub that has been engineered to include a PKA phosphorylation site. This fusion protein is purified on glutathione Sepharose, phosphorylated, following this, the ^32P Ub ubiquitin is cleaved and purified away from the thrombin.
• 500 mM Tris (pH 7.5) • 2 mM ATP • 5 mM MgCl2 • 1 mM DTT • 10 mM creatine phosphate (Sigma P4635) (45 mg/10 ml). **10× PCK • Sigma C7886, 1000 U, reconstitute in 200 μl 10 mM Tris pH 8.0.

The target in the next test is T3, Nedd4 (Homo sapiens, UniProt P46934).
T3 construct: made in house
T3 sequence (P46934 1-1319): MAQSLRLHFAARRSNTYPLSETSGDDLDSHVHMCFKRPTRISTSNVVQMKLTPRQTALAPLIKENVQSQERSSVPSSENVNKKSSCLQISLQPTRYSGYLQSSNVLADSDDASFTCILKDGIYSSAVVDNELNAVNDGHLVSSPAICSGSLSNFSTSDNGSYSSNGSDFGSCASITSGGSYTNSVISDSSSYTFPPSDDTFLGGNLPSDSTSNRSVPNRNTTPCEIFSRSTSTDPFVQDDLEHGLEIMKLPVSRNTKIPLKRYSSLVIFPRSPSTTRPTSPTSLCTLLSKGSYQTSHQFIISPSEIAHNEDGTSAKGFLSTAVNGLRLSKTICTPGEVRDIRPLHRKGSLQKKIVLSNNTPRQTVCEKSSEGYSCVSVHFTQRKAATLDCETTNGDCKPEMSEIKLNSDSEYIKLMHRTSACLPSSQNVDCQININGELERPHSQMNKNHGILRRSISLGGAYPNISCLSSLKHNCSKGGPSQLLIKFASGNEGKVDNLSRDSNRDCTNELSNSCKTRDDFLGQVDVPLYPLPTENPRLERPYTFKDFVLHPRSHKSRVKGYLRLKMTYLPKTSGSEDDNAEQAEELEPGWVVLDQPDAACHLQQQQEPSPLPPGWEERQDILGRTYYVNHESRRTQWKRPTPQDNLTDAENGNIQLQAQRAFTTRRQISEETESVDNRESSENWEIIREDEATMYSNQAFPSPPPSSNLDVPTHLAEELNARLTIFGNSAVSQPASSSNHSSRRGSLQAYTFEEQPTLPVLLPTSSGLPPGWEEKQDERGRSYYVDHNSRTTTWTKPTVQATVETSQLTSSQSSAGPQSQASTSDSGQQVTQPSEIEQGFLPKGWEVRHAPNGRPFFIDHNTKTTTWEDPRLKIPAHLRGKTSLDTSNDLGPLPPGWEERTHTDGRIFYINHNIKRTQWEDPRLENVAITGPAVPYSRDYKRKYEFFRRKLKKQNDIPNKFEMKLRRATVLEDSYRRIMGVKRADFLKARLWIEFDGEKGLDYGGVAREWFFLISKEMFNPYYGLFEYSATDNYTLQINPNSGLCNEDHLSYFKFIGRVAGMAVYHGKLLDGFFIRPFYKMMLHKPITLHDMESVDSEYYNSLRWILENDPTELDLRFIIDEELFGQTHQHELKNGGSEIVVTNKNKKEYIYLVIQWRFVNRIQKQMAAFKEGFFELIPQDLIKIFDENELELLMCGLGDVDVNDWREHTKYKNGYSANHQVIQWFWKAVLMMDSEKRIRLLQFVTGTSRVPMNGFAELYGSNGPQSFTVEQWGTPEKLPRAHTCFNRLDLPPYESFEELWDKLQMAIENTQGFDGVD
The test is described as follows: In vitro ubiquitination assay (E1+E2+E3) with unrelated E3 ligase. In kind it is biochemical. The note with it: gel assay, FIG. 2B, 2C. Here is the method:
1 pmole per experimental point of bacterially expressed GST-MDM2 (or GST-Nedd) was coupled to glutathione Sepharose (GS) for 30 minutes at room temperature with tumbling, followed by 3× wash with 50 mM Tris pH 7.5. Following this, 20 μl of 1× buffer was added (40 μl 10× reaction buffer*, 40 μl 10× PCK**, 320 μl dH2O). The test compound in DMSO is then added to the desired concentration with an equal volume of DMSO used as a control. Samples are incubated with shaking for 1 hr at 23° C. To carry out the reaction, a pre-made cocktail of Rabbit E1 (Calbiochem #6620700)/UbcH5B/^32P Ub cocktail (1 μl/0.5 μl/1 μl) is added followed by 15 minutes shaking at 30° C. The reaction is terminated by addition of 8 μl 4× reducing SDS-PAGE loading buffer. After dissociating proteins from the beads at 100° C. for 2 minutes, samples are resolved on 6% PAGE followed by exposure of the dried gel to phosphor screen. Note: ^32P Ub is derived from GST-Ub that has been engineered to include a PKA phosphorylation site. This fusion protein is purified on glutathione Sepharose, phosphorylated, following this, the ^32P Ub ubiquitin is cleaved and purified away from the thrombin.

For another test, the target named is T4, rabbit E1 (Oryctolagus cuniculus, UniProt Q29504).
T4 construct: purchased Calbiochem 6620700
T4 sequence (Q29504 1-1058): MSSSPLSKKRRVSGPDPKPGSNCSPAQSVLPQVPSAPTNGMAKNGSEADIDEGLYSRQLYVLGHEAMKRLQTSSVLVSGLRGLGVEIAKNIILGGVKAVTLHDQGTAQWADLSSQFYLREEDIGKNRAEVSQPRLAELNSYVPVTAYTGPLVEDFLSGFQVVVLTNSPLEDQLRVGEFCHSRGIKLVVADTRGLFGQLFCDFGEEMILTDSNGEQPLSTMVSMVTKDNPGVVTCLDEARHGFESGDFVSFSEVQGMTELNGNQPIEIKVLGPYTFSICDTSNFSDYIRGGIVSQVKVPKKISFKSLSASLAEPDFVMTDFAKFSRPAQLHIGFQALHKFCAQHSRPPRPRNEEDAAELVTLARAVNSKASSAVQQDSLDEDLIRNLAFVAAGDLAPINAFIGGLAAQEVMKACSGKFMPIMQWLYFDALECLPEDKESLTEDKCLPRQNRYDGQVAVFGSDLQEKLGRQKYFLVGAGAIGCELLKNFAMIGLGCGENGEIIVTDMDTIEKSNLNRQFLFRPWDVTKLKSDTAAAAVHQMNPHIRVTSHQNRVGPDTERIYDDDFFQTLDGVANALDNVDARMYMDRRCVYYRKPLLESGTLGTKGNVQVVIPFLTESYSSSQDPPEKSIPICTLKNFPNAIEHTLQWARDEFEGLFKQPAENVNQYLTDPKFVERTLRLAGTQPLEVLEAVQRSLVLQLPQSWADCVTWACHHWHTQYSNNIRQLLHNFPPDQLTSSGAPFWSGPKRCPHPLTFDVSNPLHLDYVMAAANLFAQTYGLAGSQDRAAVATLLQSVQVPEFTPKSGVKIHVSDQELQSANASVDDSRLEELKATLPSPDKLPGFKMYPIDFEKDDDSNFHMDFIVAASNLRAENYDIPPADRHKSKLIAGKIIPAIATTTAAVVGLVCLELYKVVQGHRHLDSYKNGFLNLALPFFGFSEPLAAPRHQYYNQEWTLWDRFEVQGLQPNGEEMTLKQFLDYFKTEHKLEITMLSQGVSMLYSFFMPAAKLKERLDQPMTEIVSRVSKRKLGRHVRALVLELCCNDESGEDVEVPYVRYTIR
Briefly: E1 only assay (thiol-ester linkage of ubiquitin with E1). In kind it is biochemical. The note with it: FIG. 2D. The method, then: 2 μl rabbit E1 +12 μl of 1× reaction buffer are mixed together with the test compound followed by addition of 1 μl of ^32P Ub is added for 10 minutes at room temperature followed by resolution by SDS-PAGE under non-reducing conditions to maintain thiol-ester linkages and exposure as above.

Consider `O=c1nc2n(-c3ccc(Cl)cc3)c3ccc([N+](=O)[O-])cc3cc-2c(=O)[nH]1` [Compound 98D07, 10-(-4-chloro-phenyl)-7-nitro-10H-pyrimido[4,5-b]quinoline-2,4-dione], for which, in test [1], the MDM2 level entry is “specifically increase MDM2 and p53”; the p53 level result was “specifically increase MDM2 and p53”. The “inhibition of p53 ubiquitination by MDM2” value in test [2] was “significant dose-dependent inhibition of p53 ubiquitination”. Further, on GST-MDM2, the “inhibition of MDM2 E3 ligase (auto-ubiquitination)” value was “inhibition of MDM2 auto-ubiquitination”.
Take `O=c1nc2n(-c3ccc(Cl)cc3)c3ccc([N+](=O)[O-])cc3cc-2c(=O)[nH]1` [Compound 97H10, 10-(4-chloro-phenyl)-7-nitro-10H-pyrimido[4,5-b]quinoline-2,4-dione]: the “selectivity of inhibition of MDM2 versus unrelated E3 ligase Nedd4” value at Nedd4 is “inhibits all E3s”. In addition, the “inhibition of thiol-ester linkage of ubiquitin with E1” value on rabbit E1 is “block the activity of the E1 enzyme”.
Take `Cc1ccc(-n2c3nc(=O)[nH]c(=O)c-3cc3cc([N+](=O)[O-])ccc32)cc1` [Compound 98E07, 10-(-4-methyl-phenyl)-7-nitro-10H-pyrimido[4,5-b]quinoline-2,4-dione]: in test [1], the MDM2 level result is “specifically increase MDM2 and p53”; the p53 level entry was “specifically increase MDM2 and p53”. Moreover, at GST-MDM2, the “inhibition of MDM2 E3 ligase (auto-ubiquitination)” value was “inhibition of MDM2 auto-ubiquitination”.

The record behind these values is patent US7498336B2, “Deazaflavin compounds and methods of use thereof” (The United States of America as represented by the …, priority 2003, dated 2009).
